Assay results taken from US11866515B2, “Hemiasterlin derivatives for conjugation and therapy” (priority 2015, dated 2024).

Tests used:
Target Negative Cell = test: Tumor cell line assay Example 2b, target negative cells; assay type: cell-based; settings: hemiasterlin derivatives, 120 hrs
Description: (§1) Cytotoxicity effects of test compounds on target positive and target negative cells were measured with a cell proliferation assay. Tumor cell lines were obtained from American Type Culture Collection (ATCC) and maintained in Ham's F-12: high glucose DMEM (50:50) glucose medium supplemented with 10% heat-inactivated fetal bovine serum, 1% Penicillin/Streptomcin and 2 mmol/L L-glutamax. Target positive and negative cells (a total of 625 cells per well) were seeded in a volume of 25 μL in a 384-well flat bottom white polystyrene plate. The cells were allowed to adhere overnight at 37° C. in a CO2 incubator. ADC variants were formulated at 2× concentration in DMEM/F12 medium and filtered through MultiScreen HTS 96-Well Filter Plates. Filter sterilized ADCs were serial diluted (1:3) and 25 μL of diluted samples were added into each treatment wells. Plates were then cultured at 37° C. in a CO2 incubator for 120 hrs. For cell viability measurement, 30 μL of Cell Titer-Glo® reagent (Promega Corp) was added into each well, and plates processed as per product instructions. Relative luminescence was measured on an ENVISION® plate reader (Perkin-Elmer; Waltham, Mass.). Relative luminescence readings were converted to % viability using untreated cells as controls. Data was fitted with non-linear regression analysis, using log(inhibitor) vs. response, variable slope, 4 parameter fit equation using GraphPad Prism (GraphPad v 5.00, Software; San Diego, Calif.). Data was expressed as % relative cell viability vs. dose of ADC in nM.

Target Positive Cell = test: Tumor cell line assay Example 2b, target positive cells; assay type: cell-based; settings: hemiasterlin derivatives, 120 hrs
Description: as §1

SUP-B15 (ALL) = test: Cell binding assay anti-CD74, SUP-B15; settings: Leukemia
Description: (§2) Cell lines were maintained in RPMI, high glucose (Cellgro-Mediatech; Manassas, Va.) supplemented with 20% heat-inactivated fetal bovine serum (Hyclone; Thermo Scientific; Waltham, Mass.), 2 mM glutamax (Invitrogen; Carlsbad, Calif.) and 1× Pencillin/streptomycin (Cellgro-Mediatech; Manassas, Va.). Cells were harvested and re-suspended in FACS buffer (DPBS buffer supplemented with 1% bovine serum albumin). A total of 200,000 cells per well were incubated on ice with serial dilutions of anti-CD74 lead SP7919 without conjugation for 60 minutes. Cells were washed twice with ice-cold FACS buffer and incubated with 5 ug/ml Alexa 647 labeled donkey anti-human IgG antibody (Jackson Immune-Research) on ice for another 60 mins. Unstained cells and cells stained with secondary antibody alone were used as controls. Samples were then washed twice using FACS buffer and analyzed using a BD FACS Canto system. Mean fluorescence intensities were fitted using non-linear regression analysis with one site specific binding equation on GraphPad Prism. Data was expressed as geometric mean fluorescent intensity vs. antibody concentration in nM.

JVM-13 (CLL) = test: Cell binding assay anti-CD74, JVM-13; settings: Leukemia
Description: as §2

RPMI-8226 (MM) = test: Cell binding assay anti-CD74, RPMI-8226; settings: Multiple Myeloma
Description: as §2

SU-DHL-6 (NHL) = test: Cell binding assay anti-CD74, SU-DHL-6; settings: B-Lymphoma
Description: as §2

ARD (MM) = test: Cell binding assay anti-CD74, ARD; settings: Multiple Myeloma
Description: as §2

RPMI-6666 (HL) = test: Cell binding assay anti-CD74, RPMI-6666; settings: B-Lymphoma
Description: as §2

BDCM (AML) = test: Cell binding assay anti-CD74, BDCM; settings: Leukemia
Description: as §2

CN[C@H](C(=O)N[C@H](C(=O)N(C)[C@H](/C=C(\C)C(=O)O)C(C)C)C(C)(C)C)C(C)(C)c1cccc(NC(=O)OCc2ccc(NC(=O)[C@H](CCCNC(N)=O)NC(=O)[C@@H](NC(=O)CCC(=O)N3Cc4ccccc4C#Cc4ccccc43)C(C)C)cc2)c1 (single isomer, unassigned) [Compound 101a]
IC50 (Target Negative Cell): 2010 nM
Target Negative Cell Span (%) (Target Negative Cell): 110%
IC50 (Target Positive Cell): 222 nM
Target Positive Cell Span (%) (Target Positive Cell): 93%

CN[C@H](C(=O)NC(C(=O)N(C)[C@H](/C=C(\C)C(=O)O)C(C)C)C(C)(C)C)C(C)(C)c1cccc(NC(=O)OCc2cc(C)c(OC3OC(C(=O)O)C(O)C(O)C3O)c(NC(=O)CCNC(=O)CCCCC(=O)N3Cc4ccccc4C#Cc4ccccc43)c2)c1 (stereo partly drawn) [Compound 109a]
IC50 (Target Negative Cell): 2440 nM
Target Negative Cell Span (%) (Target Negative Cell): 95%
IC50 (Target Positive Cell): 661 nM
Target Positive Cell Span (%) (Target Positive Cell): 92%

CN[C@H](C(=O)N[C@H](C(=O)N(C)[C@H](/C=C(\C)C(=O)O)C(C)C)C(C)(C)C)C(C)(C)c1cccc(NC(=O)OCc2ccc(NC(=O)[C@H](C)NC(=O)[C@@H](NC(=O)CCCCC(=O)N3Cc4ccccc4C#Cc4ccccc43)C(C)C)cc2)c1 [Compound 110a]
IC50 (Target Negative Cell): 337 nM
Target Negative Cell Span (%) (Target Negative Cell): 90%
IC50 (Target Positive Cell): 26 nM
Target Positive Cell Span (%) (Target Positive Cell): 93%

CNC(C(=O)N[C@H](C(=O)N(C)[C@H](/C=C(\C)C(=O)O)C(C)C)C(C)(C)C)C(C)(C)c1cccc(NC(=O)[C@H](C)NC(=O)[C@@H](NC(=O)CCCCC(=O)N2Cc3ccccc3C#Cc3ccccc32)C(C)C)c1 (stereo partly drawn) [Compound 111a]
IC50 (Target Negative Cell): 717 nM
Target Negative Cell Span (%) (Target Negative Cell): 91%
IC50 (Target Positive Cell): 65 nM
Target Positive Cell Span (%) (Target Positive Cell): 92%

B1: anti-CD74: anti-CD74 lead SP7919 without conjugation (antibody, V domains shown)
VH: QVQLVESGGGVVQPGRSLRLSCAASGFNFSDYGMHWVRQAPGKGLEWVAVIWYDGSISYYADSVKGRFTISRDNSKNTLYLQMNSLRAEDTAVYYCARGGTVEHGAVYGTDVWGQGTTVTVSS
VL: DIQMTQSPSSVSASVGDRVTITCRASQGIGSWLAWYQQKPGKAPKLLIYAADRLQSGVPSRFSGSGSGTDFTLTISSLQPEDFATYYCQQYHTYPLTFGGGTKVEIK
modifications: non-natural residues
Cell Binding anti-CD74 Bmax (SUP-B15 (ALL)): 680
Kd (SUP-B15 (ALL)): 3.5 nM
Cell Binding anti-CD74 Bmax (JVM-13 (CLL)): 447
Kd (JVM-13 (CLL)): 2.5 nM
Cell Binding anti-CD74 Bmax (RPMI-8226 (MM)): 119
Kd (RPMI-8226 (MM)): 3.6 nM
Cell Binding anti-CD74 Bmax (SU-DHL-6 (NHL)): 1565
Kd (SU-DHL-6 (NHL)): 2 nM
Cell Binding anti-CD74 Bmax (ARD (MM)): 190
Kd (ARD (MM)): 2.6 nM
Cell Binding anti-CD74 Bmax (RPMI-6666 (HL)): 3879
Kd (RPMI-6666 (HL)): 2.3 nM
Cell Binding anti-CD74 Bmax (BDCM (AML)): 3059
Kd (BDCM (AML)): 4.5 nM
